Data published in US12473282B2, “Biphenyl fluorine double bond derivative, preparation method therefor, and pharmaceutical application thereof” (Abbisko Therapeutics Co., Ltd., priority 2020, dated 2025).

Test: Jurkat reporter gene cellular assay
Format: cell-based
Details: Homo sapiens; Jurkat/NF-κB-luc/PD1 + Raji-PD-L1 coculture, OKT3 1 μg/mL, 6 hrs, activation fold; read-out: Cell Activity EC50
Experimental: The effect of compounds of the examples of the present invention and positive compounds on the interaction between PD-1 and PD-L1 expressed on cell surfaces, and the related influence on T cell functions, were determined by a Jurkat reporter gene cellular assay.
Briefly, the reporter gene plasmid of NF-κB-luc and the plasmid of human PD-1 were transfected into Jurkat cells to establish a stably transfected cell line capable of stably expressing both PD-1 and NF-κB-Luc reporter genes; the expression level of PD-1 on the cell surface was confirmed by flow cytometry; and the expression of the reporter gene was confirmed via the response of the reporter gene stimulated by OKT-3 and Raiji cells.
In addition, the plasmid of human PD-L1 was transfected into Raji cells to obtain a cell line capable of stably expressing PD-L1. Jurkat/NF-κB-luc/PD1 cells and Raji-PD-L1 cells were then cocultured and stimulated with OKT-3. On this basis, the compounds were added, and the enhancement of the signal pathway of T cell activation by the inhibitory effect of the compounds on the interaction between PD-1 and PD-L1 was evaluated by readings of reporter gene responses. The specific experimental process was as follows: • 1. 30 μL of compound or antibody solution was added to each well of a white 96-well plate (corning, 3610) at different diluted concentrations, and 10 μL of OKT3 (Biolegend, 317326) was then added (the final concentration of OKT3: 1 μg/mL); • 2. 20 μL of Raji-PD-L1 cell suspension was added to each well with 5*10^4 cells for each well, and was incubated in an incubator for 20 min; • 3. 20 μL of Jurkat/NF-Kb-luc/PD-1 cell suspension was added to each well with 5*10^4 cells for each well, and well mixed, and 6 hrs later, Bright-glo (Promega, E2620) was applied and plates were read on Envision; • 4. The reading of each well treated with the compound was compared with the reading of each well treated with DMSO to obtain the activation fold of the compound; • 5. EC50 values of compounds and positive compounds of the examples of the present invention were determined by non-linear regression analysis of activation folds at different compound concentrations.

Row | EC50 | SMILES
1 | 0.116 µM | COc1cc(/C(F)=C/c2cccc(-c3cccc(NC(=O)c4nc5c(n4C)CCN(CCC46CCC(C(=O)O)(CC4)C6)C5)c3Cl)c2Cl)ncc1CN1CCO[C@@H](CO)C1 [Example 69, (R,Z)-4-(2-(2-((2,2′-dichloro-3′-(2-fluoro-2-(5-((2-(hydroxymethyl)morpholino)methyl)-4-methoxypyridin-2-yl)vinyl)-[1,1′-biphenyl]-3-yl)carbamoyl)-1-methyl-1,4,6,7-tetrahydro-5H-imidazo[4,5-c]pyridin-5-yl)ethyl)bicyclo[2.2.1]heptane-1-carboxylic acid]
2 | 0.128 µM | COc1cc(/C(F)=C/c2cccc(-c3cccc(NC(=O)c4nc5c(n4C)CCN(CCC46CCC(C(=O)O)(CC4)C6)C5)c3Cl)c2Cl)ncc1CN1CCO[C@H](CO)C1 [Example 70, (S,Z)-4-(2-(2-((2,2′-dichloro-3′-(2-fluoro-2-(5-((2-(hydroxymethyl)morpholino)methyl)-4-methoxypyridin-2-yl)vinyl)-[1,1′-biphenyl]-3-yl)carbamoyl)-1-methyl-1,4,6,7-tetrahydro-5H-imidazo[4,5-c]pyridin-5-yl)ethyl)bicyclo[2.2.1]heptane-1-carboxylic acid]
3 | 0.0421 µM | COc1cc(/C(F)=C/c2cccc(-c3cccc(NC(=O)c4nc5c(n4C)CCN(CCC46CCC(C(=O)O)(CC4)C6)C5)c3Cl)c2Cl)ncc1CN1CC[C@@](C)(O)C1 [Example 71, (R,Z)-4-(2-(2-((2,2′-dichloro-3′-(2-fluoro-2-(5-((3-hydroxy-3-methylpyrrolidin-1-yl)methyl)-4-methoxypyridin-2-yl)vinyl)-[1,1′-biphenyl]-3-yl)carbamoyl)-1-methyl-1,4,6,7-tetrahydro-5H-imidazo[4,5-c]pyiidin-5-yl)ethyl)bicyclo[2.2.1]heptane-1-carboxylic acid]
4 | 0.116 µM | COc1cc(/C(F)=C/c2cccc(-c3cccc(NC(=O)c4nc5c(n4C)CCN(CCC46CCC(C(=O)O)(CC4)C6)C5)c3Cl)c2Cl)ncc1CN1CC[C@](C)(O)C1 [Example 72, (S,Z)-4-(2-(2-((2,2′-dichloro-3′-(2-fluoro-2-(5-((3-hydroxy-3-methylyrrolidin-1-yl)methyl)-4-methoxypyridin-2-yl)vinyl)-[1,1′-biphenyl]-3-yl)carbamoyl)-1-methyl-1,4,6,7-tetrahydro-5H-imidazo[4,5-c]pyridin-5-yl)ethyl)bicyclo[2.2.1]heptane-1-carboxylic acid]
5 | 0.136 µM | COc1cc(/C(F)=C/c2cccc(-c3cccc(NC(=O)c4nc5c(n4C)CCN(CCC46CCC(C(=O)O)(CC4)C6)C5)c3Cl)c2Cl)ncc1CN1CC[C@H](C(=O)O)C1 [Example 74, (S,Z)-1-((6-(2-(3′-(5-(2-(4-carboxybicyclo[2.2.1]heptan-1-yl)ethyl)-1-methyl-4,5,6,7-tetrahydro-1H-imidazo[4,5-c]pyridine-2-carboxamido)-2,2′-dichloro-[1,1′-biphenyl]-3-yl)-1-fluorovinyl)-4-methoxypyridin-3-yl)methyl)pyrrolidine-3-carboxylic acid]
6 | 0.0981 µM | COc1cc(/C(F)=C/c2cccc(-c3cccc(NC(=O)c4nc5c(n4C)CCN(CCC46CCC(C(=O)O)(CC4)C6)C5)c3Cl)c2Cl)ncc1CN1CC[C@](C)(C(=O)O)C1 [Example 76, (S,Z)-1-((6-(2-(3′-(5-(2-(4-carboxybicyclo[2.2.1]heptan-1-yl)ethyl)-1-methyl-4,5,6,7-tetrahydro-1H-imidazo[4,5-c]pyridine-2-carboxamido)-2,2′-dichloro-[1,1′-biphenyl]-3-yl)-1-fluorovinyl)-4-methoxypyridin-3-yl)methyl)-3-methylpyrrolidine-3-carboxylic acid]
